The values that follow come from US6413960B1, “Substituted pyrazolyl benzenesulfonamides for the treatment of asthma” (G.D. Searle & Co., priority 1993, dated 2002).

Structures are written as SMILES. Like-named read-outs stand apart in the source and are kept apart here.

As usually defined, the melting point is the temperature, or range, at which the solid turns liquid.

In data set [1] the test system is Male Sprague-Dawley rats (carrageenan hyperalgesic foot withdrawal). To be noted: rat.
Experimental: Rat Carrageenan-induced Analgesia Test
Male Sprague-Dawley rats were treated as previously described for the carrageenan Foot Pad Edema test. Three hours after the injection of the carrageenan, the rats were placed in a special plexiglass container with a transparent floor having a high intensity lamp as a radiant heat source, positionable under the floor. After an initial twenty minute period, thermal stimulation was begun on either the injected foot or on the contralateral uninjected foot. A photoelectric cell turned off the lamp and timer when light was interrupted by paw withdrawal. The time until the rat withdraws its foot was then measured. The withdrawal latency in seconds was determined for the control and drug-treated groups, and percent inhibition of the hyperalgesic foot withdrawal determined.
In data set [2] the test system is Male Sprague-Dawley rats (carrageenan foot edema).
Experimental: Rat Carrageenan Foot Pad Edema Test
Male Sprague-Dawley rats were selected in each group so that the average body weight was as close as possible. Rats were fasted with free access to water for over sixteen hours prior to the test. […] One hour later a subplantar injection of 0.1 mL of 1% solution of carrageenan/sterile 0.9% saline was administered and the volume of the injected foot was measured with a displacement plethysmometer connected to a pressure transducer with a digital indicator. Three hours after the injection of the carrageenan, the volume of the foot was again measured.
Another data set deals with T1, Human COX II (Homo sapiens, UniProt P35354).
T1 construct: A 2.0 kb fragment containing the coding region of either human or murine COX-I or human or murine COX-II; made in house; host or cells: SF9 insect cells (baculovirus, transfer vector pVL1393)
T1 sequence (P35354 18-604): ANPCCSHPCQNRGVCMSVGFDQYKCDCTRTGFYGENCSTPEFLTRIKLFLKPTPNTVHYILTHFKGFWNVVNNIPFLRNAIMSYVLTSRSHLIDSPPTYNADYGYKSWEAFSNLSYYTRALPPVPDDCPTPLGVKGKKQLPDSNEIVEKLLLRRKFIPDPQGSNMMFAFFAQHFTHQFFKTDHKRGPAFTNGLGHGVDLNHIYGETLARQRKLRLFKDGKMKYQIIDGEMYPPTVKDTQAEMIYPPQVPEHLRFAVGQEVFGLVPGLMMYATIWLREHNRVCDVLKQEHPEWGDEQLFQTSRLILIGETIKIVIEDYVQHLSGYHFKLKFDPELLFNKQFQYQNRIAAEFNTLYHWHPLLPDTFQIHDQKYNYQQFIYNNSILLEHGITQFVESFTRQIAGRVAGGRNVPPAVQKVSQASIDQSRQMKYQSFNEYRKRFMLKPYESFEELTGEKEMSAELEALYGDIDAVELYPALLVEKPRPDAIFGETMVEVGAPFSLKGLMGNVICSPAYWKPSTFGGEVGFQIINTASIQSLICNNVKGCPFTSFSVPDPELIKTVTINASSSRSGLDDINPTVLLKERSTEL
The data set can be described thus: Assay for COX II activity in vitro (PGE2 ELISA, recombinant enzyme). It is filed as biochemical. To be noted: read-out: Human COX II ID50. In general terms: In an ELISA, binding on a coated surface is turned into a signal by an enzyme label.

The next data set concerns the target T2, Human COX I (Homo sapiens, UniProt P23219).
T2 construct: A 2.0 kb fragment containing the coding region of either human or murine COX-I or human or murine COX-II; made in house; host or cells: SF9 insect cells (baculovirus, transfer vector pVL1393)
The data set can be described thus: Assay for COX I activity in vitro (PGE2 ELISA, recombinant enzyme). To be noted: read-out: Human COX I ID50. The data set is classed as biochemical.

Where [3] appears, read: oral, 30 mg/kg body weight, inhibition of hyperalgesic foot withdrawal.
[4] abbreviates: oral, 10 mg/kg body weight, foot volume 3 h after carrageenan.

T2 sequence (P23219 24-599): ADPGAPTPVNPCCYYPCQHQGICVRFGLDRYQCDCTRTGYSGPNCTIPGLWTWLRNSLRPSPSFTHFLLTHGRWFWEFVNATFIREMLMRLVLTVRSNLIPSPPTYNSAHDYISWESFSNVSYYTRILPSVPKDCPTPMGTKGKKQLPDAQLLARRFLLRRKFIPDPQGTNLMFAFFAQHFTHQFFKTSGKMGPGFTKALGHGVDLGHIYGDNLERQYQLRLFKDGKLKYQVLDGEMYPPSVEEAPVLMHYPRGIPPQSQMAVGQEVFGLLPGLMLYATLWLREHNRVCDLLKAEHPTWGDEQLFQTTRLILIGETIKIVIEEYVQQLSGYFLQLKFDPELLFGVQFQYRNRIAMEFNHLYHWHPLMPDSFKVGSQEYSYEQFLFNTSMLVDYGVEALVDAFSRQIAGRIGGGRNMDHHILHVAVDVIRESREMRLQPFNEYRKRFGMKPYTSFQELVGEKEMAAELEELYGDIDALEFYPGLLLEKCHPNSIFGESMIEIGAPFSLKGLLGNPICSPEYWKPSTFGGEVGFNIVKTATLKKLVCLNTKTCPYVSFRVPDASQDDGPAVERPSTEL
Experimental for Human COX II: The COX II inhibition activity of the compounds of this invention illustrated in the Examples was determined by the following methods.

As to `NS(=O)(=O)c1ccc(-n2nc(C(F)(F)F)cc2-c2ccc(Cl)cc2)cc1` [Example 1, 4-[5-(4-Chlorophenyl)-3-(trifluoromethyl)-1H-pyrazol-1-yl]benzenesulfonamide], the “ANALGESIA % Inhibition @ 30 mg/kg body weight” value in data set [1] (in vivo) was found to be 94%. Moreover, the “RAT PAW EDEMA % Inhibition @ 10 mg/kg body weight” value in data set [2] (in vivo) was found to be 44%.
On to `NS(=O)(=O)c1ccc(-n2nc(C(F)F)cc2-c2ccc(Cl)cc2)cc1` [Example 58, 4-[5-(4-Chlorophenyl)-3-(difluoromethyl)-1H-pyrazol-1-yl]benzenesulfonamide], for which, in data set [1] (setting [3]), the “ANALGESIA % Inhibition @ 30 mg/kg body weight” value worked out at 65%. Further, the “RAT PAW EDEMA % Inhibition @ 10 mg/kg body weight” value in data set [2] (setting [4]) turned out to be 36%.
In the case of `COc1ccc(-c2cc(C(F)F)nn2-c2ccc(S(N)(=O)=O)cc2)cc1F` [Example 59, 4-[5-(3-Fluoro-4-methoxyphenyl)-3-(difluoromethyl)-1H-pyrazol-1-yl]benzenesulfonamide], in data set [1] (in vivo), the “ANALGESIA % Inhibition @ 30 mg/kg body weight” value stood at 41%. In data set [2] (in vivo), the “RAT PAW EDEMA % Inhibition @ 10 mg/kg body weight” value is reported as 25%.
For the molecule `COc1ccc(-c2cc(C(F)F)nn2-c2ccc(S(N)(=O)=O)cc2)cc1` [Example 60, 4-[3-Difluoromethyl-5-(4-methoxyphenyl)-1-H-pyrazol-1-yl]benzenesulfonamide], in data set [1] (setting [3]), the “ANALGESIA % Inhibition @ 30 mg/kg body weight” value amounted to 39%. For the same molecule, the “RAT PAW EDEMA % Inhibition @ 10 mg/kg body weight” value in data set [2] (setting [4]) is recorded as 49%.
`NS(=O)(=O)c1ccc(-n2nc(C(F)(F)Cl)cc2-c2ccc(Cl)cc2)cc1` [Example 129, 4-[5-(4-Chlorophenyl)-3-(chloro-difluoromethyl)-1H-pyrazol-1-yl]benzenesulfonamide]: the melting point was 130 to 133 °C. Moreover, the IC50 at Human COX II was less than 0.1 µM. Besides, on Human COX I, the IC50 was 13.5 µM. In addition, the “RAT PAW EDEMA % Inhibition (* Assay performed at 30 mg/kg body weight)” value in data set [2] (oral, 30 mg/kg body weight (values marked *), foot volume 3 h after carrageenan) is 47* %.
In the case of `NS(=O)(=O)c1ccc(-n2nc(CO)cc2-c2ccc(Cl)cc2)cc1` [Example 171, 4-[5-(4-Chlorophenyl)-3-hydroxymethyl-1H-pyrazol-1-yl]benzenesulfonamide], the “ANALGESIA % Inhibition @ 30 mg/kg body weight” value in data set [1] (setting [3]) was 37%. Moreover, in data set [2] (setting [4]), the “RAT PAW EDEMA % Inhibition @ 10 mg/kg body weight” value worked out at 14%.
